System: HCT116 colorectal cancer cells
Test: Cisplatin sensitization assay (96 h cell viability MTS);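 further: Test-compound concentration that lowers the Cisplatin IC50 by a set fold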
Format: cell-based
Conditions: compound and Cisplatin added simultaneously, Cisplatin sensitization value
Outline: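 Viability read by MTS (1 h at 37° C) after 96 h co-exposure at 37° C, 5% CO2. Test compound and cisplatin were dosed simultaneously in a full concentration matrix, each 2-fold serially diluted from 10 μM final; sensitization values binned in μM.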

Compound | Cisplatin Sensitization Assay
CC(C)N1CCN(c2ccncc2NC(=O)c2c(N)nn3cc(Cl)cnc23)CC1 [I-N-39, 2-amino-6-chloro-N-(4-(4-isopropylpiperazin-1-yl)pyridin-3-yl)pyrazolo[1,5-a]pyrimidine-3-carboxamide] | ++ (Cisplatin sensitization value>0.02 μM but <0.2 μM)
CN(C)C1CCCN(c2ccncc2NC(=O)c2c(N)nn3cc(Cl)cnc23)C1 (stereo not drawn) [I-N-40, 2-amino-6-chloro-N-(4-(3-(dimethylamino)piperidin-1-yl)pyridin-3-yl)pyrazolo[1,5-a]pyrimidine-3-carboxamide] | ++ (Cisplatin sensitization value>0.02 μM but <0.2 μM)
CN1CCN(c2c(Cl)cncc2NC(=O)c2c(N)nn3cc(Cl)cnc23)CC1 [I-N-41, 2-amino-6-chloro-N-(5-chloro-4-(4-methylpiperazin-1-yl)pyridin-3-yl)pyrazolo[1,5-a]pyrimidine-3-carboxamide] | +++ (Cisplatin sensitization value of <0.02 μM)
CN1CCCN(c2ccncc2NC(=O)c2c(N)nn3cc(Cl)cnc23)CC1 [I-N-43, 2-amino-6-chloro-N-(4-(4-methyl-1,4-diazepan-1-yl)pyridin-3-yl)pyrazolo[1,5-a]pyrimidine-3-carboxamide] | ++ (Cisplatin sensitization value>0.02 μM but <0.2 μM)
Nc1nn2cc(Cl)cnc2c1C(=O)Nc1cnccc1N1CCn2ccnc2C1 [I-N-44, 2-amino-6-chloro-N-(4-(5,6-dihydroimidazo[1,2-a]pyrazin-7(8H)-yl)pyridin-3-yl)pyrazolo[1,5-a]pyrimidine-3-carboxamide] | ++ (Cisplatin sensitization value>0.02 μM but <0.2 μM)
CN(C)CC1CCN(c2ccncc2NC(=O)c2c(N)nn3cc(Cl)cnc23)CC1 [I-N-45, 2-amino-6-chloro-N-(4-(4-((dimethylamino)methyl)piperidin-1-yl)pyridin-3-yl)pyrazolo[1,5-a]pyrimidine-3-carboxamide] | ++ (Cisplatin sensitization value>0.02 μM but <0.2 μM)
COC1(CN(C)C)CCN(c2ccncc2NC(=O)c2c(N)nn3cc(Cl)cnc23)CC1 [I-N-46, 2-amino-6-chloro-N-(4-(4-((dimethylamino)methyl)-4-methoxypiperidin-1-yl)pyridin-3-yl)pyrazolo[1,5-a]pyrimidine-3-carboxamide] | +++ (Cisplatin sensitization value of <0.02 μM)
COCC1CN(c2ccncc2NC(=O)c2c(N)nn3cc(Cl)cnc23)CCN1C (stereo not drawn) [I-N-47, 2-amino-6-chloro-N-(4-(3-(methoxymethyl)-4-methylpiperazin-1-yl)pyridin-3-yl)pyrazolo[1,5-a]pyrimidine-3-carboxamide] | ++ (Cisplatin sensitization value>0.02 μM but <0.2 μM)
Nc1nn2cc(Cl)cnc2c1C(=O)Nc1cnccc1N1CCN(C2CCC2)CC1 [I-N-48, 2-amino-6-chloro-N-(4-(4-cyclobutylpiperazin-1-yl)pyridin-3-yl)pyrazolo[1,5-a]pyrimidine-3-carboxamide] | ++ (Cisplatin sensitization value>0.02 μM but <0.2 μM)
CN(C)CCN1CCN(c2ccncc2NC(=O)c2c(N)nn3cc(Cl)cnc23)CC1 [I-N-49, 2-amino-6-chloro-N-(4-(4-(2-(dimethylamino)ethyl)piperazin-1-yl)pyridin-3-yl)pyrazolo[1,5-a]pyrimidine-3-carboxamide] | +++ (Cisplatin sensitization value of <0.02 μM)
CN1CCN(c2cc(N)ncc2NC(=O)c2c(N)nn3cc(Cl)cnc23)CC1 [I-N-50, 2-amino-N-(6-amino-4-(4-methylpiperazin-1-yl)pyridin-3-yl)-6-chloropyrazolo[1,5-a]pyrimidine-3-carboxamide] | + (Cisplatin sensitization value>0.2 μM but <5 μM)
CN1CCN(c2cc(Cl)ncc2NC(=O)c2c(N)nn3cc(Cl)cnc23)CC1 [I-N-52, 2-amino-6-chloro-N-(6-chloro-4-(4-methylpiperazin-1-yl)pyridin-3-yl)pyrazolo[1,5-a]pyrimidine-3-carboxamide] | ++ (Cisplatin sensitization value>0.02 μM but <0.2 μM)
CN1CCN(c2ccncc2NC(=O)c2c(N)nn3cc(Cl)cnc23)CC1(C)C [I-N-53, 2-amino-6-chloro-N-(4-(3,3,4-trimethylpiperazin-1-yl)pyridin-3-yl)pyrazolo[1,5-a]pyrimidine-3-carboxamide] | ++ (Cisplatin sensitization value>0.02 μM but <0.2 μM)
CC1CN(c2ccncc2NC(=O)c2c(N)nn3cc(Cl)cnc23)CCN1C (stereo not drawn) [I-N-54, 2-amino-6-chloro-N-(4-(3,4-dimethylpiperazin-1-yl)pyridin-3-yl)pyrazolo[1,5-a]pyrimidine-3-carboxamide] | +++ (Cisplatin sensitization value of <0.02 μM)
Nc1nn2cc(Cl)cnc2c1C(=O)Nc1cnccc1N1CCCC(N)C1 (stereo not drawn) [I-N-55, 2-amino-N-(4-(3-aminopiperidin-1-yl)pyridin-3-yl)-6-chloropyrazolo[1,5-a]pyrimidine-3-carboxamide] | ++ (Cisplatin sensitization value>0.02 μM but <0.2 μM)
Nc1nn2cc(Cl)cnc2c1C(=O)Nc1cnccc1N1CCN2CCC1CC2 [I-N-56, N-(4-(1,4-diazabicyclo[3.2.2]nonan-4-yl)pyridin-3-yl)-2-amino-6-chloropyrazolo[1,5-a]pyrimidine-3-carboxamide] | ++ (Cisplatin sensitization value>0.02 μM but <0.2 μM)
Cc1cncc(NC(=O)c2c(N)nn3cc(Cl)cnc23)c1N1CCN(C)CC1 [I-N-57, 2-amino-6-chloro-N-(5-methyl-4-(4-methylpiperazin-1-yl)pyridin-3-yl)pyrazolo[1,5-a]pyrimidine-3-carboxamide] | +++ (Cisplatin sensitization value of <0.02 μM)
Nc1nn2cc(Cl)cnc2c1C(=O)Nc1cnccc1N1CCN(C2COC2)CC1 [I-N-58, 2-amino-6-chloro-N-(4-(4-(oxetan-3-yl)piperazin-1-yl)pyridin-3-yl)pyrazolo[1,5-a]pyrimidine-3-carboxamide] | ++ (Cisplatin sensitization value>0.02 μM but <0.2 μM)
CN1CCN(c2ccncc2NC(=O)c2c(N)nn3cc(Cl)cnc23)CC1 [I-N-59, 2-amino-6-chloro-N-(4-(4-methylpiperazin-1-yl)pyridin-3-yl)pyrazolo[1,5-a]pyrimidine-3-carboxamide] | ++ (Cisplatin sensitization value>0.02 μM but <0.2 μM)
COCCN1CCN(c2ccncc2NC(=O)c2c(N)nn3cc(Cl)cnc23)CC1 [I-N-60, 2-amino-6-chloro-N-(4-(4-(2-methoxyethyl)piperazin-1-yl)pyridin-3-yl)pyrazolo[1,5-a]pyrimidine-3-carboxamide] | +++ (Cisplatin sensitization value of <0.02 μM)
CN1CCN2CCN(c3ccncc3NC(=O)c3c(N)nn4cc(Cl)cnc34)CC2C1 (stereo not drawn) [I-N-61, 2-amino-6-chloro-N-(4-(8-methylhexahydro-1H-pyrazino[1,2-a]pyrazin-2(6H)-yl)pyridin-3-yl)pyrazolo[1,5-a]pyrimidine-3-carboxamide] | +++ (Cisplatin sensitization value of <0.02 μM)
CC1(N2CCN(c3ccncc3NC(=O)c3c(N)nn4cc(F)cnc34)CC2)COC1 [I-N-62, 2-amino-6-fluoro-N-(4-(4-(3-methyloxetan-3-yl)piperazin-1-yl)pyridin-3-yl)pyrazolo[1,5-a]pyrimidine-3-carboxamide] | ++ (Cisplatin sensitization value>0.02 μM but <0.2 μM)
CN1CCN(c2ccncc2NC(=O)c2c(N)nn3cc(Cl)cnc23)CC1CO (stereo not drawn) [I-N-63, 2-amino-6-chloro-N-(4-(3-(hydroxymethyl)-4-methylpiperazin-1-yl)pyridin-3-yl)pyrazolo[1,5-a]pyrimidine-3-carboxamide] | ++ (Cisplatin sensitization value>0.02 μM but <0.2 μM)
Nc1nn2cc(Cl)cnc2c1C(=O)Nc1cnccc1N1CCN(C2CC2)CC1 [I-N-64, 2-amino-6-chloro-N-(4-(4-cyclopropylpiperazin-1-yl)pyridin-3-yl)pyrazolo[1,5-a]pyrimidine-3-carboxamide] | +++ (Cisplatin sensitization value of <0.02 μM)
Nc1nn2cc(Cl)cnc2c1C(=O)Nc1cnccc1N1CCN2CCC[C@@H]2C1 [I-N-65, (R)-2-amino-6-chloro-N-(4-(hexahydropyrrolo[1,2-a]pyrazin-2(1H)-yl)pyridin-3-yl)pyrazolo[1,5-a]pyrimidine-3-carboxamide] | + (Cisplatin sensitization value>0.2 μM but <5 μM)
CC1(O)CCN(c2ccncc2NC(=O)c2c(N)nn3cc(Cl)cnc23)CC1 [I-N-66, 2-amino-6-chloro-N-(4-(4-hydroxy-4-methylpiperidin-1-yl)pyridin-3-yl)pyrazolo[1,5-a]pyrimidine-3-carboxamide] | +++ (Cisplatin sensitization value of <0.02 μM)
Nc1nn2cc(Cl)cnc2c1C(=O)Nc1cnccc1N1CCN(CC(F)(F)F)CC1 [I-N-67, 2-amino-6-chloro-N-(4-(4-(2,2,2-trifluoroethyl)piperazin-1-yl)pyridin-3-yl)pyrazolo[1,5-a]pyrimidine-3-carboxamide] | +++ (Cisplatin sensitization value of <0.02 μM)
Nc1nn2cc(Cl)cnc2c1C(=O)Nc1cnccc1N1CC[S+]([O-])CC1 [I-N-68, 2-amino-6-chloro-N-(4-(1-oxidothiomorpholino)pyridin-3-yl)pyrazolo[1,5-a]pyrimidine-3-carboxamide] | +++ (Cisplatin sensitization value of <0.02 μM)
CC(C)(O)C1CCN(c2ccncc2NC(=O)c2c(N)nn3cc(Cl)cnc23)CC1 [I-N-69, 2-amino-6-chloro-N-(4-(4-(2-hydroxypropan-2-yl)piperidin-1-yl)pyridin-3-yl)pyrazolo[1,5-a]pyrimidine-3-carboxamide] | +++ (Cisplatin sensitization value of <0.02 μM)
Nc1nn2cc(Cl)cnc2c1C(=O)Nc1cnccc1N1CCNC(C(F)(F)F)C1 (stereo not drawn) [I-N-70, 2-amino-6-chloro-N-(4-(3-(trifluoromethyl)piperazin-1-yl)pyridin-3-yl)pyrazolo[1,5-a]pyrimidine-3-carboxamide] | ++ (Cisplatin sensitization value>0.02 μM but <0.2 μM)

From US11370798B2 (Vertex Pharmaceuticals Incorporated, priority 2012, dated 2022)
